Test results as given in patent publication US10273235B2, “Compositions and methods for inhibiting β-lactamase” (LegoChem Biosciences, Inc., priority 2015, dated 2019).
Counter-ions that a name gives are not always drawn.

Tests used:
K. pneumoniae NDM-506 = test: BLI potentiation MIC, K. pneumoniae NDM-506; assay type: cell-based; conditions: BLI fixed 4 ug/ml; incubation 19 h
Method: (§1) MIC90 (μg/mL) is the lowest concentration of an antibiotic that will inhibit the visible growth of 90% of microorganisms after incubation as compared with a control group to which the antibiotic is not treated.
(§2) MIC values were measured by the broth microdilution method developed by the Clinical and Laboratory Standards Institute (CLSI) (see CLSI M07-A9, Methods for Dilution Antimicrobial Susceptibility Test for Bacteria that Grow Aerobically; Approved Standard-Ninth Edition (2012): CLSI, Villanova, Pa.). The in vitro antibacterial activity was measured with respect to the following 9 clinical isolates: P. aeruginosa (3 strains); K. pneumoniae (6 strains). The in vitro antibacterial activity of selected compounds was measured with respect to the following 15 clinical isolates: K. pneumoniae (15 strains).

K. pneumoniae 4248 = test: BLI potentiation MIC, K. pneumoniae 4248 (SHV-11, CTX-M-15, TEM-1, OXA-1); assay type: cell-based; conditions: BLI fixed 4 ug/ml; incubation 19 h
Method: as §1, §2

K. pneumoniae 3784 = test: BLI potentiation MIC, K. pneumoniae 3784 (SHV-11, SHV-12, DHA-1); assay type: cell-based; conditions: incubation 19 h; for MIC of Meropenem with BLI: BLI fixed 4 ug/ml
Method: as §1, §2

P. aeruginosa ATCC27853 = test: BLI potentiation MIC (broth microdilution), P. aeruginosa ATCC27853 (PoxB, AmpC); assay type: cell-based; conditions: incubation 19 h; for MIC of Meropenem with BLI: BLI fixed 4 ug/ml
Method: as §1, §2

P. aeruginosa ARC3506 = test: BLI potentiation MIC, P. aeruginosa ARC3506 (VEB-1, OXA-10, OprD−, AmpC); assay type: cell-based; conditions: BLI fixed 4 ug/ml; incubation 19 h
Method: as §1, §2

P. aeruginosa ARC3514 = test: BLI potentiation MIC, P. aeruginosa ARC3514 (KPC-2, OprD−, AmpC); assay type: cell-based; conditions: BLI fixed 4 ug/ml; incubation 19 h
Method: as §1, §2

Mouse pharmacokinetics = assay type: in vivo, ICR mouse; conditions: IV, 50 mg/kg, plasma; for AUC(0-inf) / Cmax / Tmax / clearance / half-life / Vd: ICR; for Vd: read-out: Vss
Method: The pharmacokinetics values were evaluated in a mouse model. The test compound (50 mg/kg) was injected into the tail vein of 8 week old ICR mouse, weighing approximately 26-30 g. […] Lab conditions were temperature of 22±3° C. and humidity of 50±20%.

K. pneumoniae 5576 = test: BLI potentiation MIC, K. pneumoniae 5576 (SHV-11, CMY-2, DHA-1, TEM-1); assay type: cell-based; conditions: Klebsiella pneumoniae, 5576, 19 h, read-out: MIC of Ceftazidime alone, no BLI; incubation 19 h
Method: as §1, §2

K. pneumoniae ATCC700603 = test: BLI potentiation MIC, K. pneumoniae ATCC700603 (SHV-3); assay type: cell-based; conditions: Klebsiella pneumoniae, ATCC700603, 19 h, read-out: MIC of Ceftazidime alone, no BLI; incubation 19 h
Method: as §1, §2

K. pneumoniae 4006 = test: BLI potentiation MIC, K. pneumoniae 4006 (SHV-12, CTX-M-15, TEM-1, OXA-9); assay type: cell-based; conditions: Klebsiella pneumoniae, 4006, 19 h, read-out: MIC of Ceftazidime alone, no BLI; incubation 19 h
Method: as §1, §2

Row | SMILES | MIC of Meropenem with BLI (K. pneumoniae NDM-506) [µg/mL] | MIC of Meropenem with BLI (K. pneumoniae 4248) [µg/mL] | MIC of Meropenem with BLI (K. pneumoniae 3784) [µg/mL] | MIC of Meropenem with BLI (P. aeruginosa ATCC27853) [µg/mL] | MIC of Meropenem with BLI (P. aeruginosa ARC3506) [µg/mL] | MIC of Meropenem with BLI (P. aeruginosa ARC3514) [µg/mL] | AUC(0-inf) (Mouse pharmacokinetics) [ng·h/mL] | Cmax (Mouse pharmacokinetics) [µg/mL] | Tmax (Mouse pharmacokinetics) [min] | clearance (Mouse pharmacokinetics) [mL/min/kg] | half-life (Mouse pharmacokinetics) [min] | Vd (Mouse pharmacokinetics) [L/kg] | AUCnorm (Mouse pharmacokinetics) [kg·h/L] | Cmax, norm (Mouse pharmacokinetics) [kg/L] | further results
1 | NCC1(C(N)=O)CC([C@@H]2CC[C@@H]3CN2C(=O)N3OS(=O)(=O)O)=NO1 (stereo partly drawn) [Example 14, [(2S,5R)-2-[5-(aminomethyl)-5-carbamoyl-4H-isoxazol-3-yl]-7-oxo-1,6-diazabicyclo[3.2.1]octan-6-yl] hydrogen sulfate] | >64 | 0.0625 | 0.25 | 2 | 64 | >64 |  |  |  |  |  |  |  |  | 
2 | NC(=O)CN1CCC2(CC([C@@H]3CC[C@@H]4CN3C(=O)N4OS(=O)(=O)O)=NO2)C1 (stereo partly drawn) [Example 12, [(2S,5R)-2-[7-(2-amino-2-oxo-ethyl)-1-oxa-2,7-diazaspiro[4.4]non-2-en-3-yl]-7-oxo-1,6-diazabicyclo[3.2.1]octan-6-yl] hydrogen sulfate] | >64 | 0.125 | 1 | 2 | 64 | >64 |  |  |  |  |  |  |  |  | 
3 | NCC1(CN)CC([C@@H]2CC[C@@H]3CN2C(=O)N3OS(=O)(=O)O)=NO1 [Example 5, [(2S,5R)-2-[5,5-bis(aminomethyl)-4H-isoxazol-3-yl]-7-oxo-1,6-diazabicyclo[3.2.1]octan-6-yl] hydrogen sulfate] |  |  |  |  |  |  | 55300 ± 4160 | 103 ± 9.93 | 4.8 | 15.2 | 191 ± 93.6 | 2.23 ± 0.61 | 1.11 ± 0.08 | 2.06 ± 0.20 | 
4 | NCC1CC([C@@H]2CC[C@@H]3CN2C(=O)N3OS(=O)(=O)O)=NO1 (stereo partly drawn) [Example 2, [(2S,5R)-2-[5-(aminomethyl)-4,5-dihydroisoxazol-3-yl]-7-oxo-1,6-diazabicyclo[3.2.1]octan-6-yl] hydrogen sulfate] |  |  |  |  |  |  | 34500 ± 3610 | 74.4 ± 3.44 | 4.8 | 24.3 | 88.2 ± 9.6 | 1.57 ± 0.12 | 0.69 ± 0.07 | 1.49 ± 0.07 | 
5 | CC(C)(O/N=C(\C(=O)N[C@@H]1C(=O)N2C(C(=O)[O-])=C(C[n+]3ccccc3)CS[C@H]12)c1csc(N)n1)C(=O)O [Ceftazidime] |  |  |  |  |  |  |  |  |  |  |  |  |  |  | MIC (K. pneumoniae 5576): > 64 µg/mL; MIC (K. pneumoniae ATCC700603): 32 µg/mL; MIC (K. pneumoniae 3784; Klebsiella pneumoniae, 3784, 19 h, read-out: MIC of Ceftazidime alone, no BLI): > 64 µg/mL; MIC (P. aeruginosa ATCC27853; Pseudomonas aeruginosa, ATCC27853, 19 h, read-out: MIC of Ceftazidime alone, no BLI): 2 µg/mL; MIC (K. pneumoniae 4006): > 64 µg/mL
6 | NCC1(CO)CC([C@@H]2CC[C@@H]3CN2C(=O)N3OS(=O)(=O)O)=NO1 (stereo partly drawn) [Example 13, [(2S,5R)-2-[5-(aminomethyl)-5-(hydroxymethyl)-4H-isoxazol-3-yl]-7-oxo-1,6-diazabicyclo[3.2.1]octan-6-yl] hydrogen sulfate] | >64 | 0.0625 | 0.25 | 2 | 32 | >64 |  |  |  |  |  |  |  |  | 
